Source: patent US20090105305A1, “Therapeutic Agents - 550” (AstraZeneca AB, priority 2006, published 2009)

Target: T1, human Fatty Acid Synthase (Homo sapiens, UniProt P49327)
T1 construct: made in house
Assay: Human FAS enzyme assay (decrease in NADPH fluorescence)
Assay type: biochemical
Details: % inhibition at a concentration of 100 micromolar
From the text: The compounds of the present invention are Fatty Acid Synthase inhibitors. […] Human and Rat FAS Enzyme Assay.
Fatty acid synthase is an enzyme complex that harbours seven enzymatic activities catalysing the reductive synthesis of long chain fatty acids from acetyl CoA and malonyl CoA to palmitate. When acetyl CoA and malonyl CoA are forming palmitate NADPH is consumed forming NADP. Since NADPH is fluorescent but not NADP the reaction can be measured by analysing the decrease in fluorescence.
Compounds were added to a black 384 well plate (Matrix) in a volume of 5 μl consisting of 20% DMSO and 80% Tris buffer pH 7.5, at a top concentration of 1 mM. NADPH, 30 μl of 166.6 μM, formulated in assay buffer (0.1M Tris ph7.5, 0.1 mM EDTA, 1 mM glutathione, 0.05% BSA), was then added to all of the wells of the plate. Fatty acid synthase Human or rat enzyme (0.4 μg, produced in house), dissolved in 20 mM Tris/HCl pH 7.5, 5 mM BOG, 1 mM TCEP, 10% glycerol, 1 mM EDTA, 150 mM NaCl, was then added to the plate in a volume of […]. Enzyme was added to all but the last two columns of the plate, to which, 10 μl of assay buffer was added (0.1M Tris ph7.5, 0.1 mM EDTA, 1 mM glutathione, 0.05% BSA) to provide a no enzyme assay control. Following a 15-minute incubation period, at room temperature, the plates were read on an Envision plate reader using 340 nm excitation and 460 nm emission filters. This served as a time zero background read. Substrates (an equal mix of both malonyl and acetyl CoA) were then added to the plates in a total volume of 5 μl. The concentrations of malonyl and acetyl CoA in the mixture were 500 μM and 150 μM respectively. Both were prepared as 10 mM stock solutions in distilled water and were subsequently diluted to working concentrations in assay buffer. Plates were then incubated for a further 60 minutes, at room temperature, before being read again on the Envision reader using the same parameters as previously used. The data was analysed by subtracting the background time zero data from that generated following the final 60 minute incubate and the percent inhibition compared to the maximum and minimum assay controls was determined. Sigmoid curves were fitted using Origin 7.5 Client software and IC50 values were determined.

T1 sequence (P49327 whole entry): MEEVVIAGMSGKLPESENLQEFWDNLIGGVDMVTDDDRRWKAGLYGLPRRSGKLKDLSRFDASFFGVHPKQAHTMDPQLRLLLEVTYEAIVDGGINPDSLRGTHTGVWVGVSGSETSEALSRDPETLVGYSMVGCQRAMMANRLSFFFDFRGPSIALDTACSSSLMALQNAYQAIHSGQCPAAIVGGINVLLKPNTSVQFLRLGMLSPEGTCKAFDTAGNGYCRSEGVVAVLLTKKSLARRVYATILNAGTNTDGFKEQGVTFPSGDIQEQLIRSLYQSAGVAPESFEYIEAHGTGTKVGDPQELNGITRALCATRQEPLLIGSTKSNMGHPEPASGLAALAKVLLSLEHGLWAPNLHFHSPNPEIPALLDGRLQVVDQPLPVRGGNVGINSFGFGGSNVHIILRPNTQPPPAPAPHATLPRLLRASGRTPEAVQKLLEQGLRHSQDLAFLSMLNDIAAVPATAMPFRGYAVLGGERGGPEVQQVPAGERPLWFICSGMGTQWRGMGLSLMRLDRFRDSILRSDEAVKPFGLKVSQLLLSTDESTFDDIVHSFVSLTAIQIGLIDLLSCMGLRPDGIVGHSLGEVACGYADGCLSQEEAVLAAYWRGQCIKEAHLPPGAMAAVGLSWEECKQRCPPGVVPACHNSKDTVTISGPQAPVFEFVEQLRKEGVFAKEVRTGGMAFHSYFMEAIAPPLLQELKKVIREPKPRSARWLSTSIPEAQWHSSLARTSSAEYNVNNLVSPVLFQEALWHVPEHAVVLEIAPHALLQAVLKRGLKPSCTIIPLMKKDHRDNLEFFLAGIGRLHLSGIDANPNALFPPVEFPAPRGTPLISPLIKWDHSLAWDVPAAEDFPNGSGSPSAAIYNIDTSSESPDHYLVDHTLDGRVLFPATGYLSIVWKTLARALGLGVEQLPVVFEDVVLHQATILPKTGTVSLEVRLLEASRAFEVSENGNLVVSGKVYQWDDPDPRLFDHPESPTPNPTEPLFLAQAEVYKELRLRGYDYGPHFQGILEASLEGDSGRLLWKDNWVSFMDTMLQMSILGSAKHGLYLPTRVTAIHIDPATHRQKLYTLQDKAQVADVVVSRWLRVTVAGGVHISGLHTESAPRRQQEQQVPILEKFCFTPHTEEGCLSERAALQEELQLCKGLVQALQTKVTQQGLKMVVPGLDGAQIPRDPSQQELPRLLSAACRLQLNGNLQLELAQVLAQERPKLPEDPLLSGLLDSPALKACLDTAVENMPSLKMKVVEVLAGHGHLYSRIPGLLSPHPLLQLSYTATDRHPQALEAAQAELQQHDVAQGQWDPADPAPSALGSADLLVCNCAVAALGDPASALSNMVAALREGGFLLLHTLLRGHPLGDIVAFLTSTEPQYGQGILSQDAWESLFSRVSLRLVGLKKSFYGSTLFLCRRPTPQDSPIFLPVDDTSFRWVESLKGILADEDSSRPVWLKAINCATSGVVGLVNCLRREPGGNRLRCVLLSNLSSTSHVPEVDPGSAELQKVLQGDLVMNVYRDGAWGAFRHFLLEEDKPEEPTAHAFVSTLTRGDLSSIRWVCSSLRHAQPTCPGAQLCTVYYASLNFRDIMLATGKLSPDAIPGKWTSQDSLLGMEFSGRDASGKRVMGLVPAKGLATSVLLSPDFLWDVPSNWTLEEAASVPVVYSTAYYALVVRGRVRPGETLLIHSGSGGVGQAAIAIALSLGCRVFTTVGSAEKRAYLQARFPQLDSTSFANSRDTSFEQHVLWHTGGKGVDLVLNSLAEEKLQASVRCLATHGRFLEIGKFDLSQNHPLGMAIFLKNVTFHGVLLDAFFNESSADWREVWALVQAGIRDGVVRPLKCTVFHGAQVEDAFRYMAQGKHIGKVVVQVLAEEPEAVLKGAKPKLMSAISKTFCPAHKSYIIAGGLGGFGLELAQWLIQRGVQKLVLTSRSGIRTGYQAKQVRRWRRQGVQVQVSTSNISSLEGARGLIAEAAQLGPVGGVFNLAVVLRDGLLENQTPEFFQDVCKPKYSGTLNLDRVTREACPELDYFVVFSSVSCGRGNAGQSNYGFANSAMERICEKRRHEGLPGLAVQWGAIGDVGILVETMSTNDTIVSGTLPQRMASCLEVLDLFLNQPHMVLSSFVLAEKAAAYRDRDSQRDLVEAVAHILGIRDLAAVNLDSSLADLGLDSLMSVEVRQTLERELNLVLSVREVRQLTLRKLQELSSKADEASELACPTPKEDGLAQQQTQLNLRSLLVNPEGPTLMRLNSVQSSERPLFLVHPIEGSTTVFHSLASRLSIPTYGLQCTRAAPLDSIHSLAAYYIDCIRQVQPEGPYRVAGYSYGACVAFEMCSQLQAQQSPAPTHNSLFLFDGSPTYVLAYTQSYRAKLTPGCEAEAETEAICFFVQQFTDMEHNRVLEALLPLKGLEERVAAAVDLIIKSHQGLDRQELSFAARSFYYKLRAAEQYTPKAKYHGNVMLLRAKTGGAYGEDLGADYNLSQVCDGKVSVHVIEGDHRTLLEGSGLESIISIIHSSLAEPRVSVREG

| Structure (SMILES) | inhibition at 100 µM [%] |
| --- | --- |
| CC(=O)N1CCC(S(=O)(=O)Nc2cc(C(=O)N3CCC(c4ccc(C#N)cc4)CC3)ccc2C)C1 (stereo not drawn) [Example 153, 1-acetyl-N-[5-[4-(4-cyanophenyl)piperidine-1-carbonyl]-2-methyl-phenyl]pyrrolidine-3-sulfonamide] | 97 |
| Cc1ccc(C(=O)N2CCC(c3ccc(C#N)cc3)CC2)cc1NS(=O)(=O)c1ccn(C)n1 [Example 140, N-[5-[4-(4-cyanophenyl)piperidine-1-carbonyl]-2-methyl-phenyl]-1-methyl-pyrazole-3-sulfonamide] | 100 |
| Cc1ccc(C(=O)N2CCC(c3ccc(CS(C)(=O)=O)cc3)CC2)cc1NS(C)(=O)=O [Example 223, N-[2-methyl-5-[4-[4-(methylsulfonylmethyl)phenyl]piperidine-1-carbonyl]phenyl]-methanesulfonamide] | 74 |
| Cc1ccc(C(=O)N2CCC(c3ccc(C#N)cc3)CC2)cc1NS(=O)(=O)c1c(C)noc1C [Example 149, N-[5-[4-(4-cyanophenyl)piperidine-1-carbonyl]-2-methyl-phenyl]-3,5-dimethyl-1,2-oxazole-4-sulfonamide] | 85 |
| CNCCCS(=O)(=O)Nc1cc(C(=O)N2CCC(c3ccc(C#N)cc3)CC2)ccc1C [Example 75, N-[5-[4-(4-cyanophenyl)piperidine-1-carbonyl]-2-methyl-phenyl]-3-methylamino-propane-1-sulfonamide] | 93 |
| CNC(=O)c1ccc(C2CCN(C(=O)c3ccc(C)c(NS(C)(=O)=O)c3)CC2)cc1 [Example 156, 4-[1-(3-methanesulfonamido-4-methyl-benzoyl)-4-piperidyl]-N-methyl-benzamide] | 74 |
| Cc1ccc(C(=O)N2CCC(c3ccc(C#N)cc3)CC2)cc1NS(=O)(=O)c1cccnc1 [Example 107, N-[5-[4-(4-cyanophenyl)piperidine-1-carbonyl]-2-methyl-phenyl]pyridine-3-sulfonamide] | 92 |
| Cc1ccc(C(=O)N2CCC(c3ccc(Oc4nccc(C(F)(F)F)n4)cc3)CC2)cc1NS(C)(=O)=O [Example 189, N-[2-methyl-5-[4-[4-[4-(trifluoromethyl)pyrimidin-2-yl]oxyphenyl]piperidine-1-carbonyl]phenyl]methanesulfonamide] | 88 |
| Cc1ccc(C(=O)N2CCC(c3ccc(C#N)cc3)CC2)cc1NS(=O)(=O)C1CCNCC1 [Example 115, N-[5-[4-(4-cyanophenyl)piperidine-1-carbonyl]-2-methyl-phenyl]piperidine-4-sulfonamide] | 97 |
| Cc1ccc(C(=O)N2CCC(c3ccc(SC(F)(F)F)cc3)CC2)cc1NS(C)(=O)=O [Example 232, N-[2-methyl-5-[4-[4-(trifluoromethylsulfanyl)phenyl]piperidine-1-carbonyl]phenyl]methanesulfonamide] | 88.9 |
| Cc1ccc(C(=O)N2CCC(c3ccc(C#N)cc3)CC2)cc1NS(=O)(=O)C1CCN(S(C)(=O)=O)CC1 [Example 121, N-[5-[4-(4-cyanophenyl)piperidine-1-carbonyl]-2-methyl-phenyl]-1-methylsulfonyl-piperidine-4-sulfonamide] | 89 |
| COc1ccccc1S(=O)(=O)Nc1ccc(C)c(C(=O)N2CCC(c3ccc(C#N)cc3)CC2)c1 [Example 50, N-[3-[4-(4-cyanophenyl)piperidine-1-carbonyl]-4-methyl-phenyl]-2-methoxy-benzenesulfonamide] | 87 |
| COc1ccc(NS(C)(=O)=O)cc1C(=O)N1CCC(c2ccc(C#N)cc2)CC1 [Example 197, N-[3-[4-(4-cyanophenyl)piperidine-1-carbonyl]-4-methoxyphenyl]methanesulfonamide] | 71 |
| CCOC(=O)NCc1ccc(C2CCN(C(=O)c3ccc(C)c(NS(C)(=O)=O)c3)CC2)cc1 [Example 228, Ethyl N-[[4-[1-(3-methanesulfonamido-4-methylbenzoyl)piperidin-4-yl]phenyl]methyl]carbamate] | 85.5 |
| COc1ccccc1S(=O)(=O)Nc1cc(C(=O)N2CCC(c3ccc(C#N)cc3)CC2)ccc1C [Example 25, N-[5-[4-(4-cyanophenyl)piperidine-1-carbonyl]-2-methyl-phenyl]-2-methoxy-benzenesulfonamide] | 87 |
| CCS(=O)(=O)Nc1cc(C(=O)N2CCC(c3ccc(C#N)cc3)CC2)ccc1C [Example 11, N-[5-[4-(4-cyanophenyl)piperidine-1-carbonyl]-2-methyl-phenyl]ethanesulfonamide] | 88 |
| Cc1ccc(C(=O)N2CCC(c3ccc(Cl)cc3)CC2)cc1NS(=O)(=O)C1CCS(=O)(=O)C1 (stereo not drawn) [Example 216, N-[5-[4-(4-chlorophenyl)piperidine-1-carbonyl]-2-methylphenyl]-1,1-dioxothiolane-3-sulfonamide] | 89 |
| CCS(=O)(=O)Nc1ccc(C)c(C(=O)N2CCC(c3ccc(C#N)cc3)CC2)c1 [Example 36, N-[3-[4-(4-cyanophenyl)piperidine-1-carbonyl]-4-methyl-phenyl]ethanesulfonamide] | 88 |
| COC(=O)CS(=O)(=O)NCc1ccc(C2CCN(C(=O)c3ccc(C)c(NS(C)(=O)=O)c3)CC2)cc1 [Example 245, Methyl 2-[[4-[1-(3-methanesulfonamido-4-methylbenzoyl)piperidin-4-yl]phenyl]methylsulfamoyl]acetate] | 104 |
| Cc1ccc(C(=O)N2CCC(c3ccc(C#N)cc3)CC2)cc1NS(=O)(=O)CCCN1C(=O)c2ccccc2C1=O [Example 134, N-[5-[4-(4-cyanophenyl)piperidine-1-carbonyl]-2-methyl-phenyl]-3-(1,3-dioxoisoindol-2-yl)propane-1-sulfonamide] | 97 |
| Cc1nc(C)c(S(=O)(=O)Nc2cc(C(=O)N3CCC(c4ccc(C#N)cc4)CC3)ccc2C)s1 [Example 106, N-[5-[4-(4-cyanophenyl)piperidine-1-carbonyl]-2-methyl-phenyl]-2,4-dimethyl-1,3-thiazole-5-sulfonamide] | 95 |
| Cc1ccc(C(=O)N2CCC(c3ccc(C#N)cc3)CC2)cc1NS(=O)(=O)CCCNS(C)(=O)=O [Example 132, N-[5-[4-(4-cyanophenyl)piperidine-1-carbonyl]-2-methyl-phenyl]-3-methanesulfonamido-propane-1-sulfonamide] | 88 |
| CC(=O)NCCCS(=O)(=O)Nc1cc(C(=O)N2CCC(c3ccc(C#N)cc3)CC2)ccc1C [Example 136, N-[3-[[5-[4-(4-cyanophenyl)piperidine-1-carbonyl]-2-methyl-phenyl]sulfamoyl]propyl]acetamide] | 94 |

Same assay, conditions: compounds excluded from the claims by proviso

| Structure (SMILES) | IC50s in the range of about 0.001 μM to about 30 μM |
| --- | --- |
| CS(=O)(=O)Nc1cc(C(=O)N2CCC(c3ccc(C#N)cc3)CC2)ccc1Cl [N-[2-chloro-5-[4-(4-cyanophenyl)piperidine-1-carbonyl]phenyl]methanesulfonamide] | do not have IC50s in the range of about 0.001 μM to about 30 μM |
| Cc1ccc(C(=O)N2CCC(c3cccc(C#N)c3)CC2)cc1NS(C)(=O)=O [N-[5-[4-(3-cyanophenyl)piperidine-1-carbonyl]-2-methylphenyl]methanesulfonamide] | do not have IC50s in the range of about 0.001 μM to about 30 μM |
| Cc1ccc(C(=O)N2CCC(c3ccc(S(=O)(=O)N4CCCC4)cc3)CC2)cc1NS(C)(=O)=O [N-[2-methyl-5-[4-(4-pyrrolidin-1-ylsulfonylphenyl)piperidine-1-carbonyl]phenyl]methanesulfonamide] | do not have IC50s in the range of about 0.001 μM to about 30 μM |
| Cc1ccc(C(=O)N2CCC(c3cccc(Br)c3)CC2)cc1NS(C)(=O)=O [N-[5-[4-(3-bromophenyl)piperidine-1-carbonyl]-2-methylphenyl]methanesulfonamide] | do not have IC50s in the range of about 0.001 μM to about 30 μM |
| Cc1ccc(C(=O)N2CCC(c3ccccc3C#N)CC2)cc1NS(C)(=O)=O [N-[5-[4-(2-cyanophenyl)piperidine-1-carbonyl]-2-methylphenyl]methanesulfonamide] | do not have IC50s in the range of about 0.001 μM to about 30 μM |
| Cc1ccc(C(=O)N2CCC(c3ccc(N4CCCC4=O)cc3)CC2)cc1NS(C)(=O)=O [N-[2-methyl-5-[4-[4-(2-oxopyrrolidin-1-yl)phenyl]piperidine-1-carbonyl]phenyl]methanesulfonamide] | do not have IC50s in the range of about 0.001 μM to about 30 μM |

Same assay, conditions: unit inferred

| Structure (SMILES) | IC50 [nM] |
| --- | --- |
| Cc1ccc(C(=O)N2CCC(c3ccc(CCC(=O)N(C)C)cc3)CC2)cc1NS(C)(=O)=O [Example 249, 3-[4-[1-(3-methanesulfonamido-4-methylbenzoyl)piperidin-4-yl]phenyl]-N,N-dimethylpropanamide] | 515 |
